According to patent US9598424B2 (Takeda Pharmaceutical Company Limited, priority 2014, dated 2017):

Legend:
[1] = target: T1, Full length human TBK1 (Homo sapiens, UniProt Q9UHD2); test: Inhibition of TBK1 Enzyme (Caliper microfluidic assay); assay type: biochemical; details: 25 μM ATP, 60 min at RT; -log(IC50), IC50 molar; read-out: TBK1 Inhibition (pIC50) (converted)
T1 construct: Full length human TBK1 with an N-terminal His-tag; His-tag (N); made in house; host or cells: Sf9 insect cells (baculovirus, pFastBac1)
T1 sequence (Q9UHD2 1-729): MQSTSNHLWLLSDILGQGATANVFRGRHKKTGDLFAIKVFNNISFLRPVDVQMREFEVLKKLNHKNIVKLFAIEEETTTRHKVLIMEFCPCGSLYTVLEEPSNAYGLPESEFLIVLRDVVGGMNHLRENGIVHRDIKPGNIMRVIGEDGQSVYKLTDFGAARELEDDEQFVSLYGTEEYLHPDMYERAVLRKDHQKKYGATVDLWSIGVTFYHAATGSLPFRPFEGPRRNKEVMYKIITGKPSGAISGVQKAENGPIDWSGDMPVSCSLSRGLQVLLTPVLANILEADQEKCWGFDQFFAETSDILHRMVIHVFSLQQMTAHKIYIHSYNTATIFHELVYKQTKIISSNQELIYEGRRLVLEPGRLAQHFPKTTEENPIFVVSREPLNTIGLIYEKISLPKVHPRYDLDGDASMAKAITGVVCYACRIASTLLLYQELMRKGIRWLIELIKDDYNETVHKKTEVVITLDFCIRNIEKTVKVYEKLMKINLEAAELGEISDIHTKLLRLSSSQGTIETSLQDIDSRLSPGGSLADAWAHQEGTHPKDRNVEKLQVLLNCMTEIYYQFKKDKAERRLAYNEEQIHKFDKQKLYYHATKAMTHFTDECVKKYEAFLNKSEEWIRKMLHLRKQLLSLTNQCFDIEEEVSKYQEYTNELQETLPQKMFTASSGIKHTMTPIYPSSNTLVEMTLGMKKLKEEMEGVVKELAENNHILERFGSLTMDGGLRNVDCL
Experimental: Full length human TBK1 with an N-terminal His-tag was cloned into the pFastBacl vector and was transfected into Sf9 cells. 72 hours later the virus was harvested and amplified through two additional rounds of infections. Then 400 ml of the resulting virus stock was used to infect 10L of Sf9 cells at a density of 2×10^6 cells/ml. Cell pellets were harvested 48 hours post infection and were lysed by freeze-thaw, homogenization and sonication in binding buffer (25 mM Tris pH7.6, 1 M NaCl, 10 mM imidazole, 0.5 mM TCEP) plus 0.1% Triton X-100 and complete protease inhibitor cocktail. The lysate was spun and the supernatant was purified with a HisTrap FF crude and a Superdex 200 pg column.
TBK1 inhibition is determined using a 384 well plate format in buffer containing 20 mM Hepes, pH 7.4, 10 mM MgCl2, 1 mM EDTA, 0.01% Brij-L23, 1 mM DTT. Each test compound is prepared in DMSO using 2.5-fold serial dilutions for 11 data points, which are added to the buffer so that each dilution contains 1% DMSO. To each well is added 2 μL of 1 μm 5FAM-DRHDSGLDSMKDE-NH2 (in buffer), 2 μL of diluted test compound (1% DMSO in buffer), and 5 μL of 3 nM TBK1 and 25 μM ATP (in buffer). The reaction mixture is incubated at RT for 60 min, and quenched by adding 20 mM Hepes, pH 7.4, 10 mM MgCl2, 1 mM EDTA, 0.01% Brij-L23, 1 mM DTT+25 mM EDTA. To quantify the fluorescent-labeled substrate and product following reaction, the test plate is loaded on a Caliper LC-3000, which measures percent of conversion by microfluidic-based separation. Corresponding IC50 values are calculated by non-linear curve fitting of the compound concentrations and percent of inhibition to the standard IC50 equation and reported as pIC50, i.e., −log(IC50), where IC50 is the molar concentration.

[2] = target: T2, TBK1 (Homo sapiens, UniProt Q9UHD2); test: Inhibition of TBK1 in Cells (TLR3 driven ISRE β-lactamase reporter assay); assay type: cell-based; details: poly IC-LMW stimulation 16 hrs; -log(EC50), EC50 molar; read-out: Inhibition of TBK1 in cells pEC50 (EC) (converted)
T2 construct: host or cells: RA1-ISRE beta-lactamase reporter cells
T2 sequence (Q9UHD2 1-729): T1 sequence (Q9UHD2 1-729)
Experimental: TBK1 inhibition is determined using a TLR3 driven RA1-ISRE β-lacatamase reporter assay (Life Technologies). In the assay 50,000 cells/well are plated in black clear bottom 384 well plate. Each test compound is prepared in DMSO using 2.5-fold serial dilutions for 11 data points, which are then added to the media. Cells are stimulated with 0.15 mg/ml poly IC-LMW (Invivogen) for 16 hrs. Reporter activity is detected using the LiveBLAzer-FRET B/G CCF4-AM substrate (Life Technologies) and the plate is read using the Spectramax M5 instrument. Corresponding EC50 values are calculated by non-linear curve fitting of the compound concentrations and percent of inhibition to the standard EC50 equation and reported as pEC50, i.e., −log(EC50), where EC50 is the molar concentration.

IC50 [1]	EC50 [2]	Structure (SMILES)
5.01 nM	269 nM	O=C(NCC(F)(F)F)c1cc(-c2cn3cc(NC(=O)C4CC4)nc3cn2)cs1 [Example 33, 4-(2-(cyclopropanecarboxamido)imidazo[1,2-a]pyrazin-6-yl)-N-(2,2,2-trifluoroethyl)thiophene-2-carboxamide]
20 nM	513 nM	O=C(NCC(F)(F)F)c1ccn(-c2ccc3nc(NC(=O)C4CC4)cn3c2)n1 [Example 34, 1-(2-(cyclopropanecarboxamido)imidazo[1,2-a]pyridin-6-yl)-N-(2,2,2-trifluoroethyl)-1H-pyrazole-3-carboxamide]
79.4 nM	5250 nM	O=C(NCC(F)F)c1ccn(-c2ccc3nc(NC(=O)C4CC4)cn3c2)n1 [Example 35, 1-(2-(cyclopropanecarboxamido)imidazo[1,2-a]pyridin-6-yl)-N-(2,2-difluoroethyl)-1H-pyrazole-3-carboxamide]
10 nM	245 nM	O=C(NCC(F)(F)F)c1ccn(-c2cn3cc(NC(=O)C4CC4)nc3cn2)n1 [Example 36, 1-(2-(cyclopropanecarboxamido)imidazo[1,2-a]pyrazin-6-yl)-N-(2,2,2-trifluoroethyl)-1H-pyrazole-3-carboxamide]
25.1 nM	1170 nM	O=C(NCC(F)F)c1ccn(-c2cn3cc(NC(=O)C4CC4)nc3cn2)n1 [Example 38, 1-(2-(cyclopropanecarboxamido)imidazo[1,2-a]pyrazin-6-yl)-N-(2,2-difluoroethyl)-1H-pyrazole-3-carboxamide]
251 nM	> 50100 nM	O=C(NCC(F)(F)F)c1ccn(-c2ccc3nc(NC(=O)C4CC4)cn3n2)n1 [Example 39, 1-(2-(cyclopropanecarboxamido)imidazo[1,2-b]pyridazin-6-yl)-N-(2,2,2-trifluoroethyl)-1H-pyrazole-3-carboxamide]
31.6 nM	708 nM	O=C(NCC(F)(F)F)c1cnn(-c2ccc3nc(NC(=O)C4CC4)cn3c2)c1 [Example 40, 1-(2-(cyclopropanecarboxamido)imidazo[1,2-a]pyridin-6-yl)-N-(2,2,2-trifluoroethyl)-1H-pyrazole-4-carboxamide]
100 nM	5130 nM	CC(F)(F)CNC(=O)c1cn(-c2ccc3nc(NC(=O)C4CC4)cn3c2)cn1 [Example 42, 1-(2-(cyclopropanecarboxamido)imidazo[1,2-a]pyridin-6-yl)-N-(2,2-difluoropropyl)-1H-imidazole-4-carboxamide]
50.1 nM	2340 nM	C[C@@H](NC(=O)c1cn(-c2ccc3nc(NC(=O)C4CC4)cn3c2)cn1)C(F)(F)F [Example 43]
3.98 nM	214 nM	O=C(NCC(F)(F)F)c1cc(-c2ccc3nc(NC(=O)C4CC4)cn3n2)cs1 [Example 44, 4-(2-(cyclopropanecarboxamido)imidazo[1,2-b]pyridazin-6-yl)-N-(2,2,2-trifluoroethyl)thiophene-2-carboxamide]
12.6 nM	479 nM	O=C(NCC(F)(F)F)c1ncc(-c2ccc3nc(NC(=O)C4CC4)cn3c2)[nH]1 [Example 50, 4-(2-(cyclopropanecarboxamido)imidazo[1,2-a]pyridin-6-yl)-N-(2,2,2-trifluoroethyl)-1H-imidazole-2-carboxamide]
7.94 nM	490 nM	O=C(NCC(F)(F)F)c1cc(-c2ccc3nc(NC(=O)C4CC4)cn3c2)[nH]n1 [Example 51, 5-(2-(cyclopropanecarboxamido)imidazo[1,2-a]pyridin-6-yl)-N-(2,2,2-trifluoroethyl)-1H-pyrazole-3-carboxamide]
6.31 nM	148 nM	O=C(Nc1cn2cc(-c3cc(C(=O)N4CCC[C@@H]4C(F)(F)F)n[nH]3)ccc2n1)C1CC1 [Example 52, (R)-N-(6-(3-(2-(trifluoromethyl)pyrrolidine-1-carbonyl)-1H-pyrazol-5-yl)imidazo[1,2-a]pyridin-2-yl)cyclopropanecarboxamide]

The remaining lines, values behind:

Structure (SMILES)	IC50 [1]	EC50 [2]
O=C(NCC(F)(F)F)c1nc(-c2ccc3nc(NC(=O)C4CC4)cn3n2)cs1 [Example 21, 4-(2-(cyclopropanecarboxamido)imidazo[1,2-b]pyridazin-6-yl)-N-(2,2,2-trifluoroethyl)thiazole-2-carboxamide]	50.1 nM	3390 nM
Cc1sc(C(=O)NCC(F)(F)F)cc1-c1ccc2nc(NC(=O)C3CC3)cn2n1 [Example 23, 4-(2-(cyclopropanecarboxamido)imidazo[1,2-b]pyridazin-6-yl)-5-methyl-N-(2,2,2-trifluoroethyl)thiophene-2-carboxamide]	79.4 nM	5370 nM
CC(NC(=O)c1nc(-c2ccc3nc(NC(=O)C4CC4)cn3c2)c[nH]1)C(F)(F)F (centres unmarked) [Example 24, 4-(2-(cyclopropanecarboxamido)imidazo[1,2-a]pyridin-6-yl)-N-(1,1,1-trifluoropropan-2-yl)-1H-imidazole-2-carboxamide]	25.1 nM	468 nM
O=C(NCC(F)(F)F)c1cc(-c2ccc3nc(NC(=O)C4CC4)cn3c2)sn1 [Example 26, 5-(2-(cyclopropanecarboxamido)imidazo[1,2-a]pyridin-6-yl)-N-(2,2,2-trifluoroethyl)isothiazole-3-carboxamide]	79.4 nM	759 nM
O=C(NCC(F)F)c1cc(-c2ccc3nc(NC(=O)C4CC4)cn3c2)n[nH]1 [Example 27, 5-(2-(cyclopropanecarboxamido)imidazo[1,2-a]pyridin-6-yl)-N-(2,2-difluoroethyl)-1H-pyrazole-3-carboxamide]	31.6 nM	3720 nM
CN(CC(F)(F)F)C(=O)c1cc(-c2ccc3nc(NC(=O)C4CC4)cn3c2)cs1 [Example 28, 4-(2-(cyclopropanecarboxamido)imidazo[1,2-a]pyridin-6-yl)-N-methyl-N-(2,2,2-trifluoroethyl)thiophene-2-carboxamide]	12.6 nM	676 nM
Cc1sc(C(=O)NCC(F)(F)F)cc1-c1ccc2nc(NC(=O)C3CC3)cn2c1 [Example 29, 4-(2-(cyclopropanecarboxamido)imidazo[1,2-a]pyridin-6-yl)-5-methyl-N-(2,2,2-trifluoroethyl)thiophene-2-carboxamide]	39.8 nM	6760 nM
Cc1sc(C(=O)NCC(F)(F)F)cc1-c1cn2cc(NC(=O)C3CC3)nc2cn1 [Example 30, 4-(2-(cyclopropanecarboxamido)imidazo[1,2-a]pyrazin-6-yl)-5-methyl-N-(2,2,2-trifluoroethyl)thiophene-2-carboxamide]	25.1 nM	6460 nM
O=C(NCC(F)(F)F)c1cc(-c2ccc3nc(NC(=O)C4CC4)cn3c2)cs1 [Example 32, 4-(2-(cyclopropanecarboxamido)imidazo[1,2-a]pyridin-6-yl)-N-(2,2,2-trifluoroethyl)thiophene-2-carboxamide]	5.01 nM	120 nM
